{"source": "patent US8486901B2", "about": "(priority 2009, dated 2013)", "tested_on": "Kunming mice", "settings": "mouse, in vivo", "note": "Where “and” joins values, the source holds several entries; their conditions need not be identical. Equal values may be shown once.", "data": [{"smiles": "N=C1NC(O)C2C3OC4(O)OC(C(O)C2(N1)[C@@H]4O)C3(O)COC1OC(CO)C(O)C(O)C1O", "note": "(stereo partly drawn) [Formula 11-Gal-TTX, 11-galactopyranosyl-TTX]", "values": [{"measurement": "Effect on pain (result in words)", "result": "inhibitory effect on pain"}, {"measurement": "Inhibition rate (%)", "result": "60.6% and 30.3% and 51.7%"}, {"measurement": "Number of writhes", "result": "12.50 ± 4.7 and 22.10 ± 6.4 and 15.30 ± 6.4"}]}]}
